We go through 10 compounds from PubChem BioAssay (NCI).

Among the test systems are DU-145 prostate; OVCAR-8 ovarian; NCI-H522 lung; SK-MEL-2 melanoma; UACC-257 melanoma; MCF7 breast; SN12C renal; SR leukemia; NCI-H460 lung; HOP-92 NSCLC.
Common to all, as to test: DTP human tumour cell line panel, 48 h

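Results reflect a 48-hour exposure of cells in 96-well plates to compound at five concentrations. At the GI50, growth is halved. TGI: concentration producing complete growth inhibition.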

As for `Oc1[nH]c2ccccc2c1/C=c1/ccc2c(c1)N=C(c1ccc(C(F)(F)F)cc1)N=2`, the GI50 with DU-145 prostate was 4.11 µM; with OVCAR-8 ovarian it was 5.94 µM; in the assay on NCI-H522 lung, 1.97 µM; in the assay on SK-MEL-2 melanoma, 5.08 µM; with UACC-257 melanoma, 7.4 µM; in the assay with MCF7 breast, 2.98 µM. Moreover, the GI50 is 6.91 µM in the assay with SN12C renal, 1.7 µM in the assay on SR leukemia and 2.13 µM in the assay on NCI-H460 lung. The TGI amounted to 16 µM in the assay on DU-145 prostate; 20.3 µM in the assay with OVCAR-8 ovarian; 13.5 µM with NCI-H522 lung; 15.3 µM with SK-MEL-2 melanoma; 21.5 µM in the assay with UACC-257 melanoma; 12.9 µM in the assay with MCF7 breast. Besides, the TGI in the assay with SN12C renal turned out to be 20.6 µM; in the assay on SR leukemia, 4.54 µM; in the assay with NCI-H460 lung, 6.12 µM.

Turning to `CCCc1nc(Cl)c(Cl)c(Cl)n1`, the TGI with DU-145 prostate was greater than 100 µM; in the assay on OVCAR-8 ovarian, 51 µM; with NCI-H522 lung, 30.5 µM; in the assay with UACC-257 melanoma, greater than 100 µM; in the assay with MCF7 breast it was greater than 78.6 µM; in the assay with HOP-92 NSCLC, greater than 61.7 µM. Also, the TGI was greater than 31.6 µM with SN12C renal, greater than 50.7 µM in the assay on SR leukemia and greater than 100 µM in the assay with NCI-H460 lung.

As to `OC1CCCC2CCC[N-]C12.OC1CCCC2CCC[N-]C12.[O]=[V][OH]` (stereo not given), the GI50 is 19.7 µM in the assay on DU-145 prostate; 2.98 µM in the assay with OVCAR-8 ovarian; 0.743 µM in the assay with NCI-H522 lung; 9.96 µM in the assay on SK-MEL-2 melanoma; 4.05 µM with UACC-257 melanoma; 2.87 µM with MCF7 breast. The GI50 is 22.9 µM in the assay on HOP-92 NSCLC, 5.91 µM in the assay on SN12C renal and 5.49 µM with NCI-H460 lung. In addition, the concentration for total growth inhibition (TGI) was greater than 100 µM with DU-145 prostate; greater than 100 µM in the assay on OVCAR-8 ovarian; 25.7 µM in the assay with NCI-H522 lung; 45 µM with SK-MEL-2 melanoma; greater than 100 µM in the assay with UACC-257 melanoma; 10.1 µM in the assay on MCF7 breast. In addition, the TGI in the assay with HOP-92 NSCLC, in the assay on SN12C renal and in the assay with NCI-H460 lung was greater than 100 µM each time.

With `Oc1ccc(C(O)(c2ccccc2)c2ccccc2)c2ccccc12`, the TGI with DU-145 prostate is 14 µM; in the assay with NCI-H522 lung it was 7.17 µM; with SK-MEL-2 melanoma, 7.25 µM; in the assay on UACC-257 melanoma, 23.7 µM; with MCF7 breast it was greater than 100 µM; in the assay on HOP-92 NSCLC, 5.22 µM. Further, the TGI with SN12C renal is 6.87 µM; in the assay with SR leukemia, 7.27 µM; in the assay with NCI-H460 lung, greater than 100 µM.

As to `O=C1C=C(OCC=C(C(F)(F)F)C(F)(F)F)c2ccccc2C1=O`, the GI50 in the assay with DU-145 prostate is 1.75 µM; in the assay on OVCAR-8 ovarian, 1.63 µM; with NCI-H522 lung it was 1.41 µM; in the assay with SK-MEL-2 melanoma it was 1.85 µM; in the assay on UACC-257 melanoma, 1.42 µM; with MCF7 breast, 1.39 µM. The GI50 in the assay on HOP-92 NSCLC was 1.9 µM; in the assay on SN12C renal, 1.09 µM; in the assay on SR leukemia, 2.02 µM. Moreover, the TGI with DU-145 prostate is 3.17 µM; in the assay on OVCAR-8 ovarian, 3.12 µM; with NCI-H522 lung it was 2.92 µM; with SK-MEL-2 melanoma, 4.06 µM; in the assay on UACC-257 melanoma, 2.77 µM; with MCF7 breast, 3.94 µM. The TGI with HOP-92 NSCLC came to 4.37 µM; in the assay with SN12C renal, 2.37 µM; with SR leukemia, 7.43 µM.

In the case of `O=C(Nc1cc(Cl)ccc1O)c1ccccc1Nc1ccnc(C(F)(F)F)c1`, the GI50 in the assay on DU-145 prostate is 3.69 µM; in the assay on OVCAR-8 ovarian, 3.43 µM; in the assay on UACC-257 melanoma, 2.85 µM; in the assay on MCF7 breast it was 2.75 µM; in the assay with HOP-92 NSCLC, 2.58 µM; in the assay on SN12C renal it was 2.84 µM. The GI50 in the assay on SR leukemia was 2.83 µM; in the assay with NCI-H460 lung, 2.99 µM. The TGI with DU-145 prostate worked out at 14.1 µM; with OVCAR-8 ovarian, 16.3 µM; in the assay with UACC-257 melanoma it was 8.5 µM; in the assay on MCF7 breast, 11.6 µM; in the assay with HOP-92 NSCLC it was 8.72 µM; with SN12C renal, 10.7 µM. Further, the TGI in the assay with SR leukemia is 11.6 µM; in the assay with NCI-H460 lung it was 9.92 µM.

As to `CCCCOc1ccc(/C=N/Nc2cc(C)nc3ccc(Br)cc23)cc1`, the GI50 was 1.94 µM in the assay with DU-145 prostate; 1.77 µM in the assay with OVCAR-8 ovarian; 1.72 µM with NCI-H522 lung; 1.47 µM in the assay with SK-MEL-2 melanoma; 1.66 µM with UACC-257 melanoma; 1.83 µM in the assay on MCF7 breast. Moreover, the GI50 in the assay on HOP-92 NSCLC was 1.54 µM; in the assay on SN12C renal it was 1.74 µM; in the assay on NCI-H460 lung, 2.08 µM. Moreover, the concentration for total growth inhibition (TGI) was determined as 3.87 µM with DU-145 prostate; 3.53 µM in the assay with OVCAR-8 ovarian; 3.21 µM in the assay with NCI-H522 lung; 2.86 µM in the assay on SK-MEL-2 melanoma; 3.18 µM in the assay on UACC-257 melanoma; 3.68 µM with MCF7 breast. Besides, the concentration for total growth inhibition (TGI) came out at 3.11 µM in the assay with HOP-92 NSCLC, 3.25 µM in the assay with SN12C renal and 4.06 µM in the assay on NCI-H460 lung.

Regarding `COc1cc2c(c(OC)c1OC)-c1ccc(SC)c(=O)cc1[C@@H](NC(=O)C(F)(F)F)CC2`, the TGI in the assay on DU-145 prostate was greater than 100 µM; in the assay with OVCAR-8 ovarian it was greater than 72.6 µM; in the assay on NCI-H522 lung it was less than 0.01 µM; in the assay with UACC-257 melanoma it was greater than 4.64 µM; in the assay with MCF7 breast, greater than 82.2 µM; in the assay on HOP-92 NSCLC, 0.105 µM. The results for the TGI in the assay on SN12C renal and in the assay on SR leukemia were 16.5 µM and greater than 100 µM, respectively.

As for `O=C(Nc1cc(F)c(F)cc1C(=O)O)c1ccc(-n2ccnc2)nn1`, the GI50 in the assay on DU-145 prostate, with OVCAR-8 ovarian, in the assay on SK-MEL-2 melanoma, in the assay on UACC-257 melanoma, in the assay with MCF7 breast and with HOP-92 NSCLC was greater than 100 µM in each case. Moreover, the GI50 in the assay on SN12C renal is greater than 100 µM; in the assay on SR leukemia, 27.9 µM; with NCI-H460 lung, greater than 100 µM. Besides, the TGI in the assay with DU-145 prostate, with OVCAR-8 ovarian, in the assay on SK-MEL-2 melanoma, with UACC-257 melanoma, in the assay with MCF7 breast and with HOP-92 NSCLC was greater than 100 µM throughout. Moreover, the TGI in the assay with SN12C renal, in the assay with SR leukemia and with NCI-H460 lung was greater than 100 µM in each case.

With `CCN(CC)CCN1c2nc3ccccc3cc2Sc2cc3ccccc3nc21`, the GI50 with DU-145 prostate was 3.59 µM; in the assay with OVCAR-8 ovarian it was 2.43 µM; in the assay with NCI-H522 lung, 1.65 µM; in the assay on SK-MEL-2 melanoma, 1.69 µM; with UACC-257 melanoma, 2.04 µM; in the assay with MCF7 breast, 0.75 µM. The figures for the GI50 with HOP-92 NSCLC, with SN12C renal and in the assay with NCI-H460 lung were 0.869 µM, 2.28 µM and 1.52 µM, respectively. For the same compound, the TGI in the assay on DU-145 prostate was found to be 11.3 µM; with OVCAR-8 ovarian, 8.15 µM; in the assay with NCI-H522 lung, 4.1 µM; in the assay with SK-MEL-2 melanoma, 4.4 µM; in the assay with UACC-257 melanoma it was 4.06 µM; in the assay with MCF7 breast it was 2.1 µM. For the same compound, the TGI in the assay on HOP-92 NSCLC was 3.2 µM; in the assay on SN12C renal it was 12.2 µM; in the assay on NCI-H460 lung, 2.95 µM.

What is called GI50 is the concentration giving 50% growth inhibition. A word on the TGI: it is the concentration giving total growth inhibition. Low readings indicate greater sensitivity of the cells, high ones lower sensitivity of the cells.
